Measured values reported in PubChem BioAssay (NCI).
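Protocol summary: plate cells (96-well), add compound at 5 concentrations, incubate 48 h, interpolate endpoints linearly. TGI marks complete inhibition of growth.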

Columns and labels:
Assay in all cases: growth of human tumour cells (NCI), 48 h
RPMI-8226 leukemia = tested on: RPMI-8226 leukemia
UACC-257 melanoma = tested on: UACC-257 melanoma
SF-268 CNS = tested on: SF-268 CNS
HOP-92 NSCLC = tested on: HOP-92 NSCLC
OVCAR-5 ovarian = tested on: OVCAR-5 ovarian
NCI-H522 lung = tested on: NCI-H522 lung
COLO 205 colon = tested on: COLO 205 colon
MDA-MB-435 = tested on: MDA-MB-435
UO-31 renal = tested on: UO-31 renal
SR leukemia = tested on: SR leukemia
UACC-62 melanoma = tested on: UACC-62 melanoma
SW-620 colon = tested on: SW-620 colon
SNB-75 CNS = tested on: SNB-75 CNS
KM12 colon = tested on: KM12 colon
HS 578T breast = tested on: HS 578T breast
HT29 colon = tested on: HT29 colon
NCI-H226 lung = tested on: NCI-H226 lung
MOLT-4 leukemia = tested on: MOLT-4 leukemia
NCI/ADR-RES ovarian = tested on: NCI/ADR-RES ovarian
ACHN renal = tested on: ACHN renal
K-562 leukemia = tested on: K-562 leukemia
SK-OV-3 ovarian = tested on: SK-OV-3 ovarian
HL-60(TB) leukemia = tested on: HL-60(TB) leukemia
M14 melanoma = tested on: M14 melanoma
OVCAR-8 ovarian = tested on: OVCAR-8 ovarian
BT-549 breast = tested on: BT-549 breast
PC-3 prostate = tested on: PC-3 prostate
U251 CNS = tested on: U251 CNS
CAKI-1 renal = tested on: CAKI-1 renal
DU-145 prostate = tested on: DU-145 prostate
SK-MEL-2 melanoma = tested on: SK-MEL-2 melanoma
MCF7 breast = tested on: MCF7 breast
SK-MEL-28 melanoma = tested on: SK-MEL-28 melanoma
A549 NSCLC = tested on: A549 NSCLC
SK-MEL-5 melanoma = tested on: SK-MEL-5 melanoma
SNB-19 CNS = tested on: SNB-19 CNS
786-0 renal = tested on: 786-0 renal
SF-539 CNS = tested on: SF-539 CNS
HCT-116 colon = tested on: HCT-116 colon
SN12C renal = tested on: SN12C renal
TK-10 renal = tested on: TK-10 renal
EKVX NSCLC = tested on: EKVX NSCLC
NCI-H460 lung = tested on: NCI-H460 lung
LOX IMVI melanoma = tested on: LOX IMVI melanoma
A498 renal = tested on: A498 renal
NCI-H23 lung = tested on: NCI-H23 lung
HCC-2998 colon = tested on: HCC-2998 colon
CCRF-CEM leukemia = tested on: CCRF-CEM leukemia
MDA-N = tested on: MDA-N
HOP-62 NSCLC = tested on: HOP-62 NSCLC
MALME-3M melanoma = tested on: MALME-3M melanoma
HCT-15 colon = tested on: HCT-15 colon
T-47D breast = tested on: T-47D breast
IGROV1 ovarian = tested on: IGROV1 ovarian
MDA-MB-231 breast = tested on: MDA-MB-231 breast
OVCAR-4 ovarian = tested on: OVCAR-4 ovarian
RXF 393 renal = tested on: RXF 393 renal
OVCAR-3 ovarian = tested on: OVCAR-3 ovarian
SF-295 CNS = tested on: SF-295 CNS

Cc1cc(N)ccc1C=O
TGI (RPMI-8226 leukemia): > 100 µM
TGI (UACC-257 melanoma): > 100 µM
TGI (SF-268 CNS): > 100 µM
TGI (HOP-92 NSCLC): > 100 µM
TGI (OVCAR-5 ovarian): > 100 µM
TGI (NCI-H522 lung): > 100 µM
TGI (COLO 205 colon): > 100 µM
TGI (MDA-MB-435): > 100 µM
TGI (UO-31 renal): > 100 µM
TGI (SR leukemia): > 100 µM
TGI (UACC-62 melanoma): > 100 µM
TGI (SW-620 colon): > 100 µM
TGI (SNB-75 CNS): > 100 µM
TGI (KM12 colon): > 100 µM
TGI (HS 578T breast): > 100 µM
TGI (HT29 colon): > 100 µM
TGI (NCI-H226 lung): > 100 µM
TGI (MOLT-4 leukemia): > 100 µM
TGI (NCI/ADR-RES ovarian): > 100 µM
TGI (ACHN renal): > 100 µM
TGI (K-562 leukemia): > 100 µM
TGI (SK-OV-3 ovarian): > 100 µM
TGI (HL-60(TB) leukemia): > 100 µM
TGI (M14 melanoma): > 100 µM
TGI (OVCAR-8 ovarian): > 100 µM
TGI (BT-549 breast): > 100 µM
TGI (PC-3 prostate): > 100 µM
TGI (U251 CNS): > 100 µM
TGI (CAKI-1 renal): > 100 µM
TGI (DU-145 prostate): > 100 µM
TGI (SK-MEL-2 melanoma): > 100 µM
TGI (MCF7 breast): > 100 µM
TGI (SK-MEL-28 melanoma): > 100 µM
TGI (A549 NSCLC): > 100 µM
TGI (SK-MEL-5 melanoma): > 100 µM
TGI (SNB-19 CNS): > 100 µM
TGI (786-0 renal): > 100 µM
TGI (SF-539 CNS): > 100 µM
TGI (HCT-116 colon): > 100 µM
TGI (SN12C renal): > 100 µM
TGI (TK-10 renal): > 100 µM
TGI (EKVX NSCLC): > 100 µM
TGI (NCI-H460 lung): > 100 µM
TGI (LOX IMVI melanoma): > 100 µM
TGI (A498 renal): > 100 µM
TGI (NCI-H23 lung): > 100 µM
TGI (HCC-2998 colon): > 100 µM
TGI (CCRF-CEM leukemia): > 100 µM
TGI (MDA-N): > 100 µM
TGI (HOP-62 NSCLC): > 100 µM
TGI (MALME-3M melanoma): > 100 µM
TGI (HCT-15 colon): > 100 µM
TGI (T-47D breast): > 100 µM
TGI (IGROV1 ovarian): > 100 µM
TGI (MDA-MB-231 breast): > 100 µM
TGI (OVCAR-4 ovarian): > 100 µM
TGI (RXF 393 renal): > 100 µM
TGI (OVCAR-3 ovarian): > 100 µM

COC(=O)C1(C)CCCC2(C)C3CCC4CC3(C=C4CO)CCC12 (configuration not stated)
TGI (RPMI-8226 leukemia): 48.6 µM
TGI (UACC-257 melanoma): > 100 µM
TGI (SF-268 CNS): > 100 µM
TGI (HOP-92 NSCLC): > 100 µM
TGI (OVCAR-5 ovarian): > 100 µM
TGI (NCI-H522 lung): > 100 µM
TGI (COLO 205 colon): > 100 µM
TGI (MDA-MB-435): > 100 µM
TGI (UO-31 renal): > 100 µM
TGI (SR leukemia): 62 µM
TGI (UACC-62 melanoma): > 100 µM
TGI (SW-620 colon): > 100 µM
TGI (SNB-75 CNS): > 100 µM
TGI (HS 578T breast): > 100 µM
TGI (HT29 colon): 30.9 µM
TGI (NCI-H226 lung): > 100 µM
TGI (MOLT-4 leukemia): 76.4 µM
TGI (NCI/ADR-RES ovarian): 75.5 µM
TGI (ACHN renal): > 100 µM
TGI (SK-OV-3 ovarian): > 100 µM
TGI (HL-60(TB) leukemia): 43.9 µM
TGI (M14 melanoma): > 100 µM
TGI (OVCAR-8 ovarian): > 100 µM
TGI (SF-295 CNS): > 100 µM
TGI (BT-549 breast): > 100 µM
TGI (PC-3 prostate): > 100 µM
TGI (U251 CNS): > 100 µM
TGI (CAKI-1 renal): > 100 µM
TGI (DU-145 prostate): > 100 µM
TGI (SK-MEL-2 melanoma): > 100 µM
TGI (MCF7 breast): 72.7 µM
TGI (SK-MEL-28 melanoma): > 100 µM
TGI (A549 NSCLC): > 100 µM
TGI (SK-MEL-5 melanoma): > 100 µM
TGI (SNB-19 CNS): > 100 µM
TGI (786-0 renal): > 100 µM
TGI (SF-539 CNS): > 100 µM
TGI (HCT-116 colon): > 100 µM
TGI (SN12C renal): 60.7 µM
TGI (TK-10 renal): > 100 µM
TGI (EKVX NSCLC): > 100 µM
TGI (LOX IMVI melanoma): 47.4 µM
TGI (A498 renal): > 100 µM
TGI (NCI-H23 lung): > 100 µM
TGI (HCC-2998 colon): > 100 µM
TGI (CCRF-CEM leukemia): > 100 µM
TGI (MDA-N): > 100 µM
TGI (HOP-62 NSCLC): > 100 µM
TGI (MALME-3M melanoma): > 100 µM
TGI (HCT-15 colon): 34.9 µM
TGI (T-47D breast): > 100 µM
TGI (IGROV1 ovarian): > 100 µM
TGI (MDA-MB-231 breast): > 100 µM
TGI (OVCAR-4 ovarian): > 100 µM
TGI (RXF 393 renal): > 100 µM
TGI (OVCAR-3 ovarian): > 100 µM

COc1ccc(/C=C2\CN(C)CC3C2=NC(=S)NC3c2ccc(OC)cc2)cc1 (configuration not stated)
TGI (RPMI-8226 leukemia): > 24.7 µM
TGI (UACC-257 melanoma): > 100 µM
TGI (SF-268 CNS): > 100 µM
TGI (HOP-92 NSCLC): 94.3 µM
TGI (OVCAR-5 ovarian): > 86 µM
TGI (NCI-H522 lung): > 20.8 µM
TGI (COLO 205 colon): > 39.3 µM
TGI (MDA-MB-435): 7.86 µM
TGI (UO-31 renal): > 100 µM
TGI (SR leukemia): > 100 µM
TGI (UACC-62 melanoma): > 100 µM
TGI (SW-620 colon): > 100 µM
TGI (KM12 colon): > 65.8 µM
TGI (HS 578T breast): > 100 µM
TGI (HT29 colon): 83.1 µM
TGI (NCI-H226 lung): > 100 µM
TGI (MOLT-4 leukemia): > 81.1 µM
TGI (NCI/ADR-RES ovarian): 19.1 µM
TGI (ACHN renal): > 100 µM
TGI (K-562 leukemia): > 100 µM
TGI (SK-OV-3 ovarian): > 100 µM
TGI (HL-60(TB) leukemia): 14.8 µM
TGI (M14 melanoma): 15.8 µM
TGI (OVCAR-8 ovarian): > 100 µM
TGI (SF-295 CNS): > 75.8 µM
TGI (BT-549 breast): > 100 µM
TGI (PC-3 prostate): > 50 µM
TGI (U251 CNS): > 52.6 µM
TGI (CAKI-1 renal): > 100 µM
TGI (DU-145 prostate): 26.4 µM
TGI (SK-MEL-2 melanoma): > 64.8 µM
TGI (MCF7 breast): > 100 µM
TGI (SK-MEL-28 melanoma): > 100 µM
TGI (A549 NSCLC): > 100 µM
TGI (SK-MEL-5 melanoma): > 100 µM
TGI (SNB-19 CNS): > 100 µM
TGI (786-0 renal): > 68.5 µM
TGI (SF-539 CNS): 59.5 µM
TGI (HCT-116 colon): > 44.7 µM
TGI (SN12C renal): > 100 µM
TGI (TK-10 renal): > 100 µM
TGI (EKVX NSCLC): > 100 µM
TGI (NCI-H460 lung): 59.8 µM
TGI (LOX IMVI melanoma): > 100 µM
TGI (A498 renal): 26.3 µM
TGI (NCI-H23 lung): > 94.1 µM
TGI (HCC-2998 colon): > 100 µM
TGI (CCRF-CEM leukemia): > 24.7 µM
TGI (MDA-N): 3.74 µM
TGI (HOP-62 NSCLC): > 100 µM
TGI (MALME-3M melanoma): > 31.4 µM
TGI (HCT-15 colon): > 100 µM
TGI (T-47D breast): > 29.9 µM
TGI (IGROV1 ovarian): > 22.6 µM
TGI (MDA-MB-231 breast): > 59.1 µM
TGI (OVCAR-4 ovarian): > 70.8 µM
TGI (RXF 393 renal): 7.49 µM
TGI (OVCAR-3 ovarian): 10.3 µM
